Laboratory results taken from the supplement of paper PMC13380429.

Tests used:
Details in all cases: 72 h
Caco-2 [1] = assay: cell viability relative to DMSO; higher = less toxic
Calu-3 [2] = assay: as above
Vero E6 [3] = assay: as above
HepG2 [4] = assay: as above
U2OS [5] = assay: as above
Caco-2 [6] = assay: relative viability EC50 (midpoint between 100% and the lowest measured viability); higher = less toxic
Calu-3 [7] = assay: as above
Vero E6 [8] = assay: as above
HepG2 [9] = assay: as above
U2OS [10] = assay: as above
Caco-2 [11] = assay: drug sensitivity score (DSS) for viability; higher = more toxic; extreme values may be limits of the assay
Calu-3 [12] = assay: as above
Vero E6 [13] = assay: as above
HepG2 [14] = assay: as above
U2OS [15] = assay: as above

Compound	cell viability (Caco-2 [1]; 1 nM) [%]	cell viability (Caco-2 [1]; 10 nM) [%]	cell viability (Caco-2 [1]; 100 nM) [%]	cell viability (Caco-2 [1]; 1000 nM) [%]	cell viability (Caco-2 [1]; 10000 nM) [%]	cell viability (Calu-3 [2]; 1 nM) [%]	cell viability (Calu-3 [2]; 10 nM) [%]	cell viability (Calu-3 [2]; 100 nM) [%]	cell viability (Calu-3 [2]; 1000 nM) [%]	cell viability (Calu-3 [2]; 10000 nM) [%]	cell viability (Vero E6 [3]; 1 nM) [%]	cell viability (Vero E6 [3]; 10 nM) [%]	cell viability (Vero E6 [3]; 100 nM) [%]	cell viability (Vero E6 [3]; 1000 nM) [%]	cell viability (Vero E6 [3]; 10000 nM) [%]	cell viability (HepG2 [4]; 1 nM) [%]	cell viability (HepG2 [4]; 10 nM) [%]	cell viability (HepG2 [4]; 100 nM) [%]	cell viability (HepG2 [4]; 1000 nM) [%]	cell viability (HepG2 [4]; 10000 nM) [%]	cell viability (U2OS [5]; 1 nM) [%]	cell viability (U2OS [5]; 10 nM) [%]	cell viability (U2OS [5]; 100 nM) [%]	cell viability (U2OS [5]; 1000 nM) [%]	cell viability (U2OS [5]; 10000 nM) [%]	relative viability EC50 (Caco-2 [6]) [µM]	relative viability EC50 (Calu-3 [7]) [µM]	relative viability EC50 (Vero E6 [8]) [µM]	relative viability EC50 (HepG2 [9]) [µM]	relative viability EC50 (U2OS [10]) [µM]	drug sensitivity score (Caco-2 [11])	drug sensitivity score (Calu-3 [12])	drug sensitivity score (Vero E6 [13])	drug sensitivity score (HepG2 [14])	drug sensitivity score (U2OS [15])
C=C(C)[C@@H]1[C@H]2OC(=O)[C@@H]1[C@]1(O)C[C@H]3O[C@]34C(=O)O[C@H]2[C@]14C [picrotoxinin]	108	102	99.2	103	96.1	104	107	92.8	94.5	92.6	97.2	95.6	97.5	102	99.5	109	108	106	97.4	98.4	101	98.4	98.3	98.4	97.2	> 10	> 10	> 10	> 10	> 10	0	0	0	0	0
CCOC(=O)C(=O)Nc1cccc(OC)c1C(N)=O	83.3	96.6	103	104	102	83.7	95.3	91.2	97.5	88.8	103	94.9	108	105	106	102	96.7	93.2	102	104	98.9	98.9	96	101	97.6	> 10	> 10	> 10	> 10	> 10	0	0	0	0	0
CO[C@H]1[C@H](O)[C@@H](O)[C@@H](O)[C@H](O)[C@@H]1O [pinitol]	107	84.5	104	94	97	83.9	100	89.7	96.5	94.2	102	106	104	92.1	93.4	99.2	95.1	85.4	80	96.6	96.5	97.5	98.4	99.8	96	> 10	> 10	> 10	> 10	> 10	0	0	0	0	0
Cc1c(O)c(=O)n(-c2ccccc2)n1C [4-hydroxy-phenazone]	98.7	98.7	90.2	92.3	90.6	107	105	101	96.8	102	98	98.3	103	103	92.9	102	103	110	96.6	115						> 10	> 10	> 10	> 10		0	0	0	0	
CCC(=O)O[C@]1(C(=O)CO)CC[C@H]2[C@@H]3CCC4=CC(=O)CC[C@]4(C)[C@H]3CC[C@@]21C [CB-03-01]	99.4	103	100	101	101	93.7	97	102	109	94.9	101	107	101	96.8	99.6	102	106	90.8	95.4	96.1	99.9	104	98.3	102	97	> 10	> 10	> 10	> 10	> 10	0	0	0	0	0
Cn1nc(C(C)(C)C)cc1C(=O)N[C@@H](Cc1cccc(Cl)c1)C(=O)NCC#N [cathepsin-inhibitor-1]	99.8	99.3	86.7	93.5	92.3	103	89.1	105	94.9	91.8	95	99.3	102	96.2	98.4	94	103	112	90.8	98.4	97.7	99.1	92.8	94.2	90.9	> 10	> 10	> 10	> 10	> 10	0	0	0	0	0
Cn1c(=O)c2c(ncn2CC(O)CO)n(C)c1=O (stereo not drawn) [dyphylline]	104	110	104	98.9	107	92.7	99.6	109	96.4	101	100	102	105	98.7	105	102	106	97.1	107	104	107	108	105	98.8	110	> 10	> 10	> 10	> 10	> 10	0	0	0	0	0
CCC1(c2ccccc2)C(=O)N(COC)C(=O)N(COC)C1=O [eterobarb]	102	90.8	95.3	105	111	111	88.2	110	88.5	105	112	110	102	106	86.8	105	114	97.4	100	88.4						> 10	> 10	> 10	> 10		0	0	0	0	
C[C@H]1CO[C@@H]2Cn3cc(C(=O)NCc4ccc(F)cc4F)c(=O)c(O)c3C(=O)N12	107	90.1	98	98.5	81.6	109	94	104	95.2	92.2	88.9	99.7	94.3	97.5	89.6	104	112	97.1	112	56.9	95.6	92.4	99.4	92.2	88.5	> 10	> 10	> 10		> 10	0.6	0	0	1.6	0
COc1cc([S+](C)[O-])ccc1-c1nc2cccnc2[nH]1 (stereo not drawn) [sulmazole]	115	98.5	98.8	99.5	112	108	90.3	90.7	93.8	104	98	102	98.5	97.8	101	106	103	95.5	102	100						> 10	> 10	> 10	> 10		0	0	0	0	
CCn1cc(-c2cccc(C(F)(F)F)c2)c2sc(C(=N)NC3CCS(=O)(=O)CC3)cc2c1=O [I-BRD9]	111	102	97	97.8	93.5	112	99.5	106	95.4	79.5	95.1	95.8	98.7	98.1	92.3	94.4	99.2	98.6	97.5	63.4	103	102	99.1	99.5	92	> 10	> 10	> 10		> 10	0	1.2	0	2.1	0
O=C(NC1CCN(Cc2ccccc2)CC1)c1ccc(I)cc1 [4-IBP]	104	101	99.4	103	88.8	104	104	104	95.9	102	109	106	107	101	93.2	94.5	108	104	105	68	102	99.9	101	97.6	98.8	> 10	> 10	> 10		> 10	0	0	0	1.2	0
Cc1c(Cl)cccc1S(=O)(=O)Nc1nc(CC(=O)N2CCN(C)CC2)cs1 [BVT-2733]	106	92.6	100	106	98.3	108	102	92.5	102	106	103	101	107	102	94.6	104	101	92.7	104	97.4						> 10	> 10	> 10	> 10		0	0	0	0	
C=C[C@]1(C)C[C@@H](OC(=O)CSC(C)(C)CNC(=O)[C@H](N)C(C)C)[C@]2(C)[C@H](C)CC[C@]3(CCC(=O)[C@H]32)[C@@H](C)[C@@H]1O [valnemulin]	99.4	93.3	91.8	94.5	80.9	94.3	98.6	102	101	98.9	97.1	98.7	103	95.1	88.3	98.6	104	93.7	88.1	63	97.4	99.4	97.7	96.3	79.5	> 10	> 10	> 10		> 10	0.7	0	0.2	3	1.1
